{"source": "patent US12258354B2", "about": "“AhR modulators” (IDEAYA BIOSCIENCES, INC., priority 2018, dated 2025)", "biological_target": "T1, hAhR (Homo sapiens, UniProt P35869)", "T1 construct": "Stably integrated DRE-luciferase cell lines were generated by transducing the both cell lines with Cignal XRE luciferase reporter; endogenous in cells; host or cells: HEPG2 DRE-Luc cells (only the XRE luciferase reporter was transduced)", "T1 sequence (P35869 11-848)": "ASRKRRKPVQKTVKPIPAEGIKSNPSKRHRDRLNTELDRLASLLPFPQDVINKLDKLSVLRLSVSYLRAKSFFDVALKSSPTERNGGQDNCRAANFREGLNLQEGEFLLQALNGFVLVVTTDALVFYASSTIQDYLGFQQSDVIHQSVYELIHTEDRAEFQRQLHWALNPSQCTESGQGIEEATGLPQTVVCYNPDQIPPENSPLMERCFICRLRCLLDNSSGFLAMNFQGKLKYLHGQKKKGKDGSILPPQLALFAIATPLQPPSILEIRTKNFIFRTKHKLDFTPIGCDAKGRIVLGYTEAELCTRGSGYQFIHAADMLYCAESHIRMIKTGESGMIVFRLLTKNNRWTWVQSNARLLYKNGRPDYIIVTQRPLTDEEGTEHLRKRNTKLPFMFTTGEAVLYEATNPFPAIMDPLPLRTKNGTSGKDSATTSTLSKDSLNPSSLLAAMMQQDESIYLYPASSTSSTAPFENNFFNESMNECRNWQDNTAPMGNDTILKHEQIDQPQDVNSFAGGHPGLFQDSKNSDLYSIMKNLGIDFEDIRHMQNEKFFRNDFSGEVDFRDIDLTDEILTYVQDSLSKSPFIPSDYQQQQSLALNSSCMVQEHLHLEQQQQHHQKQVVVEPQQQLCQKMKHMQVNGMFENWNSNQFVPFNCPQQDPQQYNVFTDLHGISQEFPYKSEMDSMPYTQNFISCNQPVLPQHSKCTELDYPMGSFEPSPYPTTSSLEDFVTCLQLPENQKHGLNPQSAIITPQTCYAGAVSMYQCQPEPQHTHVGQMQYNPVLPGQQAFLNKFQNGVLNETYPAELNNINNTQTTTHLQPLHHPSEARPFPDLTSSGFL", "test": "DRE-luciferase transcriptional reporter assay in HEPG2 DRE-Luc cells, TCDD-induced (antagonist mode)", "type": "cell-based", "settings": "relative IC50, 3 nM TCDD, 24-hour incubation, firefly luciferase readout", "description": "HEPG2 and HEPA1C1C7 cells were maintained in MEM and αMEM without nucleosides supplemented with 10% heat inactivated FBS respectively. Stably integrated DRE-luciferase cell lines were generated by transducing the both cell lines with Cignal XRE luciferase reporter (Qiagen) lentiviral particles according to the manufacturer protocol. For both cell lines stably integrated reporter cell lines were selected for the presence of 2 μg/mL puromycin. Following selection of stably integrated cell line pools, clonal cell lines were isolated by limiting dilution in 96-well plates. Transcriptional assays were performed by seeding 100 μL of cells at a density of 250,000 or 100,000 cells/mL, for HEPG2 and HEPA1C1C7 DRE-Luc cells respectively, into 96-well cell culture plates in OptiMEM supplemented with 0.5% heat inactivated FBS and allowed to attach overnight. For modulator assays, the compounds were added in a semi-log dose response using a D300e Digital Dispenser (Tecan) followed normalization with vehicle (DMSO). Immediately following compound addition 10 μL of 2,3,7,8-Tetrachlorodibenzo-p-dioxin (TCDD) was added to the cells to a final concentration of 3 nM or 0.3 nM for the HEPG2 and HEPA1C1C7 DRE-Luc cells respectively. Following 24-hour incubation, the medium was removed and the cells were lysed in 25 μL of Reporter Lysis Buffer (Promega). Firefly luciferase activity was measured immediately following the addition of 50 μL Luciferase Assay Reagent (Promega). The percent maximal activity for each point was determined using the following equation: (RLUsample−RLUvehicle−TCDD)/(RLUvehicle+TCDD RLUvehicle−TCDD)*100. The relative IC50, defined as the compound concentration required to reduce the TCDD induced response between the top and bottom plateau of each individual dose response curve by half, for each compound was determined using Prism 7 (GraphPad Software)."}
{"smiles": "Cc1cc(-c2ncc3cc(C(F)(F)F)ccc3n2)ccc1N1CC(CO)n2ncc(C)c2C1=O", "note": "(stereo not drawn) [Example 114, 7-(hydroxymethyl)-3-methyl-5-(2-methyl-4-(6-(trifluoromethyl)quinazolin-2-yl)phenyl)-6,7-dihydropyrazolo[1,5-a]pyrazin-4 (5H)-one]", "values": [{"measurement": "IC50", "result": "< 200", "unit": "nM"}]}
{"smiles": "Cc1cc(-c2ncc3nc(C(F)(F)F)ccc3n2)ccc1N1CCOc2cnn(C)c2C1=O", "note": "[compound 001, 1-methyl-7-(2-methyl-4-(6-(trifluoromethyl)pyrido[3,2-d]pyrimidin-2-yl)phenyl)-6,7-dihydro-1H-pyrazolo[3,4-f][1,4]oxazepin-8 (5H)-one]", "values": [{"measurement": "IC50", "result": "< 200", "unit": "nM"}]}
{"smiles": "Cc1cc(-c2ncc3cc(C(F)(F)F)ccc3n2)ccc1N1CCn2ncc(C)c2C1=O", "note": "[compound 002, 3-methyl-5-(2-methyl-4-(6-(trifluoromethyl)quinazolin-2-yl)phenyl)-6,7-dihydropyrazolo[1,5-a]pyrazin-4 (5H)-one]", "values": [{"measurement": "IC50", "result": "< 200", "unit": "nM"}]}
{"smiles": "Cc1cc(N2CCn3ncc(C)c3C2=O)c(C)cc1-c1ncc2cc(C(F)(F)F)ccc2n1", "note": "[compound 003, 5-(2,5-dimethyl-4-(6-(trifluoromethyl)quinazolin-2-yl)phenyl)-3-methyl-6,7-dihydropyrazolo[1,5-a]pyrazin-4 (5H)-one]", "values": [{"measurement": "IC50", "result": "200 to 500", "unit": "nM"}]}
{"smiles": "Cc1cc(-c2ncc3nc(C(F)(F)F)ccc3n2)ccc1N1CCc2cnn(C)c2C1=O", "note": "[compound 004, 1-methyl-6-(2-methyl-4-(6-(trifluoromethyl)pyrido[3,2-d]pyrimidin-2-yl)phenyl)-1,4,5,6-tetrahydro-7H-pyrazolo[3,4-c]pyridin-7-one]", "values": [{"measurement": "IC50", "result": "< 200", "unit": "nM"}]}
{"smiles": "Cc1cc(N2CCOc3cnn(C)c3C2=O)c(C)cc1-c1ccc2nc(C(F)(F)F)cc(C)c2n1", "note": "[compound 005, 7-(2,5-dimethyl-4-(8-methyl-6-(trifluoromethyl)-1,5-naphthyridin-2-yl)phenyl)-1-methyl-6,7-dihydro-1H-pyrazolo[3,4-f][1,4]oxazepin-8 (5H)-one]", "values": [{"measurement": "IC50", "result": "< 200", "unit": "nM"}]}
{"smiles": "Cc1cc(-c2ccc3nc(C(F)(F)F)ccc3n2)ccc1N1CCn2ncc(C)c2C1=O", "note": "[compound 006, 3-methyl-5-(2-methyl-4-(6-(trifluoromethyl)-1,5-naphthyridin-2-yl)phenyl)-6,7-dihydropyrazolo[1,5-a]pyrazin-4 (5H)-one]", "values": [{"measurement": "IC50", "result": "< 200", "unit": "nM"}]}
{"smiles": "Cc1cc(N2CCn3ncc(C)c3C2=O)c(F)cc1-c1ccc2nc(C(F)(F)F)ccc2n1", "note": "[compound 007, 5-(2-fluoro-5-methyl-4-(6-(trifluoromethyl)-1,5-naphthyridin-2-yl)phenyl)-3-methyl-6,7-dihydropyrazolo[1,5-a]pyrazin-4 (5H)-one]", "values": [{"measurement": "IC50", "result": "< 200", "unit": "nM"}]}
{"smiles": "Cc1cc(-c2ccc3cc(C(F)(F)F)ccc3n2)ccc1N1CCn2ncc(C)c2C1=O", "note": "[compound 008, 3-methyl-5-(2-methyl-4-(6-(trifluoromethyl)quinolin-2-yl)phenyl)-6,7-dihydropyrazolo-[1,5-a]pyrazin-4 (5H)-one]", "values": [{"measurement": "IC50", "result": "< 200", "unit": "nM"}]}
{"smiles": "Cc1cc(-c2ncc3cc(C(F)(F)F)cc(C)c3n2)ccc1N1CCn2ncc(C)c2C1=O", "note": "[compound 009, 3-methyl-5-(2-methyl-4-(8-methyl-6-(trifluoromethyl)quinazolin-2-yl)phenyl)-6,7-dihydropyrazolo[1,5-a]pyrazin-4 (5H)-one]", "values": [{"measurement": "IC50", "result": "< 200", "unit": "nM"}]}
{"smiles": "Cc1cc(N2CCc3cnn(C)c3C2=O)c(C)cc1-c1ccc2nc(C(F)(F)F)ccc2n1", "note": "[compound 010, 6-(2,5-dimethyl-4-(6-(trifluoromethyl)-1,5-naphthyridin-2-yl)phenyl)-1-methyl-1,4,5,6-tetrahydro-7H-pyrazolo[3,4-c]pyridin-7-one]", "values": [{"measurement": "IC50", "result": "1000 to 10000", "unit": "nM"}]}
{"smiles": "Cc1cc(N2CCc3cnn(C)c3C2=O)c(F)cc1-c1ccc2nc(C(F)(F)F)ccc2n1", "note": "[compound 011, 6-(2-fluoro-5-methyl-4-(6-(trifluoromethyl)-1,5-naphthyridin-2-yl)phenyl)-1-methyl-1,4,5,6-tetrahydro-7H-pyrazolo[3,4-c]pyridin-7-one]", "values": [{"measurement": "IC50", "result": "< 200", "unit": "nM"}]}
